Measured values as given in patent US12357632B2, “Methods of treating cholangiocarcinoma” (QED Therapeutics, Inc., priority 2019, dated 2025).

Test system: advanced or metastatic cholangiocarcinoma with FGFR genetic alterations
Experiment: Phase II study of oral BGJ398 in advanced or metastatic cholangiocarcinoma, Patient 5010004 (RECIST v1.1)
Type: in vivo, human
Experimental: This is a multi-center, open label, single arm phase II study evaluating BGJ398 anti-tumor activity in advanced or metastatic cholangiocarcinoma patients with FGFR genetic alterations. 125 mg of oral, monotherapy BGJ398 is administered once daily for the first 3 weeks (21 days) of each 28-day cycle. The starting dose of 125 mg may be reduced to 100 mg, 75 mg, or 50 mg. The treatment period begins on Cycle 1, Day 1, and continues until disease progression, unacceptable toxicity, withdrawal of informed consent, or death. Patients are evaluated for tumor response radiographically every 8 weeks until disease progression or discontinuation from study using RECIST v1.1 criteria.
Adult patients with histologically or cytologically confirmed advanced or metastatic cholangiocarcinoma with FGFR2 gene fusions or translocations or other FGFR genetic alteration who have evidence of radiologic progression following a cisplatin- and gemcitabine-containing regimen for advanced disease or a gemcitabine-containing regimen for those who are considered intolerant to cisplatin are enrolled. Up to approximately 160 adult patients over age 18, both male and female are enrolled. Three cohorts of patients comprise the study population: • Cohort 1: ˜120 patients, 108 with FGFR2 gene fusions or translocations and 12 with other FGFR genetic alterations. • Cohort 2: ˜20 patients with FGFR genetic alterations other than FGFR2 gene fusions or translocations. • Cohort 3: Up to ˜20 patients with FGFR2 gene fusions or translocations who have received a prior FGFR inhibitor. Main Inclusion Criteria
Tumor response according to RECIST v1.1, and survival.
During treatment with infigratinib, the patient's response was determined by follow-up assessments conducted by a local investigator per RECIST v1.1.

## CCN1CCN(c2ccc(Nc3cc(N(C)C(=O)Nc4c(Cl)c(OC)cc(OC)c4Cl)ncn3)cc2)CC1 [Infigratinib, 3-(2,6-dichloro-3,5-dimethoxyphenyl)-1-{6-[4-(4-ethyl-1-piperazin-1-yl)phenylamino]-pyrimidinyl-4-yl}-1-methylurea]
Patient 5010004, Study Day 54
  New Lesion: No
  Non-Target Lesion Response: Non-CR^1/Non-PD^2
  Overall Response: Stable disease
  Target Lesion % Change from Baseline: 18.33%
Patient 5010004, Study Day 83
  New Lesion: No
  Non-Target Lesion Response: Non-CR/Non-PD
  Overall Response: Stable disease
  Target Lesion % Change from Baseline: 16.33%
Patient 5010004, Study Day 110
  New Lesion: No
  Non-Target Lesion Response: Non-CR/Non-PD
  Overall Response: Stable disease
  Target Lesion % Change from Baseline: 16.33%
Patient 5010004, Study Day 153
  New Lesion: No
  Non-Target Lesion Response: Progressive
  Overall Response: Progressive
  Target Lesion % Change from Baseline: 31.63%
Patient 5010004, first 3 follow-up assessments, local investigator, RECIST v1.1
  duration of stable disease: at least 4 months
Patient 5010004, study treatment
  time to discontinuation for progressive disease: approximately 5 months
